For 7 compounds, IC50 results are on record in ChEMBL document CHEMBL1131835, “Synthesis and biological evaluation of conformationally restricted Gabapentin analogues” (Bioorg Med Chem Lett, 1999).

Each structure is given as a SMILES string.

This experiment in a line: Displacement of [3H]gabapentin from alpha2-delta subunit of calcium channel. Background: Loss of bound radioactivity is the signal in a displacement assay; it reports binding, not function.
Turning to `NCC1(CC(=O)O)CCCCC1` [GABAPENTIN], the IC50 amounted to […].
With `O=C(O)[C@@H]1CNCC12CCCCC2`, the IC50 is over 10 µM.
On to `O=C(O)C[C@]12CCCC[C@H]1CNC2`, for which the half-maximal inhibitory concentration (IC50) was over 10 µM.
Take `O=C(O)[C@H]1CNCC12CCCCC2`: the IC50 amounted to 0.12 µM.
As to `O=C(O)C1NCC12CCCCC2` (configuration not stated), the IC50 was 1.5 µM.
With `O=C(O)C[C@]12CCCC[C@H]1NC2`, the IC50 was over 10 µM.
As for `O=C(O)C1CCNCC12CCCCC2` (configuration not stated), the figure is over 10 µM.

The term IC50 denotes the concentration at which inhibition is half-maximal.
